The source of these data is ChEMBL document CHEMBL1140449, “Preliminary studies of new proteasome inhibitors in the tumor targeting approach: synthesis and in vitro cytotoxicity” (J Med Chem, 2005).

Where a SMILES comes first, the peptide text is derived from it. The star is where a group is joined. Cbz = O=C(OCc1ccccc1)*

The first assay is described as follows: Inhibitory concentration for cytotoxic activity against human ocular melanoma IPC227F cells upon incubation for 48 h at 37 °C.
In general, IC50 refers to the midpoint of a concentration-inhibition curve. Higher therefore signals weaker potency in that assay. Molecule `CCN(CC)CCNC(=O)c1ccc(C(=O)N[C@@H](CC(C)C)C(=O)N[C@@H](Cc2ccccc2)C(=O)N[C@H](C=O)CC(C)C)cc1` gave an IC50 of 2840 nM.

Regarding `CCN(CC)CCNC(=O)c1ccc(C(=O)N[C@@H](Cc2ccccc2)C(=O)N[C@H](C=O)CC(C)C)cc1`, the IC50 turned out to be 20900 nM.

In turn, `CCN(CC)CCNC(=O)c1ccc(C(=O)N[C@@H](CC(C)C)C(=O)N[C@@H](CC(C)C)C(=O)N[C@H](C=O)CC(C)C)cc1` came in with an IC50 of 640 nM.

With `CCN(CC)CCNC(=O)c1ccc(C(=O)N[C@@H](Cc2ccccc2)C(=O)N[C@@H](CC(C)C)C(=O)N[C@H](C=O)CC(C)C)cc1`, the IC50 amounted to 11900 nM.

In turn, `CC(C)C[C@@H](C=O)NC(=O)[C@H](CC(C)C)NC(=O)[C@H](CC(C)C)NC(=O)OCc1ccccc1` [MG-132] (Cbz-Leu-Leu-Leu-aldehyde) showed an IC50 of 77 nM.

Another assay in a line: Inhibitory concentration for cytotoxic activity against human ocular melanoma IPC227F cells upon incubation for 48 h at 37 °C; No inhibition.
In the case of `CCN(CC)CCNC(=O)c1ccc(C(=O)N[C@H](C=O)CC(C)C)cc1`, the IC50 entry is on record as “Not Active”.

Regarding `CCN(CC)CCNC(=O)c1ccc(C(=O)N[C@@H](CC(C)C)C(=O)N[C@H](C=O)CC(C)C)cc1`, the IC50 entry is listed as “Not Active”.
